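Assay format: 96-well plates, 48-hour exposure. TGI marks complete inhibition of growth.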

This note sets out measurements from PubChem BioAssay (NCI).

Some test systems named below: SNB-75 CNS; A549 NSCLC; NCI-H23 lung; IGROV1 ovarian; NCI-H522 lung; OVCAR-8 ovarian; EKVX NSCLC; HCC-2998 colon; OVCAR-3 ovarian; SK-MEL-5 melanoma; A498 renal; UACC-62 melanoma; U251 CNS; HL-60(TB) leukemia; M14 melanoma; T-47D breast; PC-3 prostate; MDA-MB-231 breast; DU-145 prostate.
Common to all, as to assay: NCI-60 cell line screen, 48 h

With `CCCCN(CCCC)CC(C(=O)Nc1ccc([N+](=O)[O-])cc1[N+](=O)[O-])/C(C)=N\NC(=O)c1ccncc1` (stereo not drawn), the TGI in the assay on SNB-75 CNS, in the assay on A549 NSCLC, in the assay on NCI-H23 lung, in the assay on IGROV1 ovarian, in the assay with NCI-H522 lung and with OVCAR-8 ovarian was greater than 100 µM each time. Moreover, the TGI in the assay on EKVX NSCLC, with HCC-2998 colon, in the assay on OVCAR-3 ovarian, with SK-MEL-5 melanoma, in the assay on A498 renal and in the assay on UACC-62 melanoma was greater than 100 µM in each case. The TGI in the assay on U251 CNS, with HL-60(TB) leukemia and in the assay on M14 melanoma was greater than 100 µM in each case.
Turning to `NN/C(=N\S(=O)(=O)c1cc(S(=O)(=O)c2ccccc2)cs1)Nc1ccc(Cl)cc1`, the TGI with SNB-75 CNS is 67.2 µM; with A549 NSCLC it was greater than 100 µM; in the assay on T-47D breast it was 55.9 µM; in the assay on NCI-H23 lung, greater than 100 µM; in the assay on IGROV1 ovarian it was greater than 100 µM; in the assay with PC-3 prostate it was 69.7 µM. The TGI was 41.3 µM in the assay on NCI-H522 lung; greater than 100 µM in the assay with OVCAR-8 ovarian; 55.7 µM with EKVX NSCLC; greater than 100 µM in the assay with MDA-MB-231 breast; 54.2 µM with OVCAR-3 ovarian; 32.3 µM in the assay on SK-MEL-5 melanoma. For the same compound, the TGI with A498 renal was greater than 100 µM; with UACC-62 melanoma, 43.2 µM; with U251 CNS, 89.6 µM; in the assay with HL-60(TB) leukemia, 32.7 µM; with DU-145 prostate, greater than 100 µM; in the assay with M14 melanoma it was 48.1 µM.
In the case of `Cn1c(=O)oc2cc(C(O)CN3CCN(Cc4ccc5c(c4)OCO5)CC3)ccc21` (stereo not drawn), the TGI in the assay on SNB-75 CNS, in the assay with A549 NSCLC, with T-47D breast, with NCI-H23 lung, in the assay on IGROV1 ovarian and in the assay on PC-3 prostate was greater than 100 µM in each case. The TGI in the assay with NCI-H522 lung, with OVCAR-8 ovarian, in the assay with EKVX NSCLC, in the assay with MDA-MB-231 breast, in the assay with HCC-2998 colon and with OVCAR-3 ovarian was greater than 100 µM each time. Also, the TGI in the assay on A498 renal, in the assay with UACC-62 melanoma, with U251 CNS, in the assay with HL-60(TB) leukemia, in the assay with DU-145 prostate and with M14 melanoma was greater than 100 µM each time.
For `CCN(CC)CC(C(C)=O)C(c1ccccc1)c1c(O)c2ccccc2oc1=O` (stereo not drawn), the TGI with SNB-75 CNS, in the assay with A549 NSCLC, in the assay with IGROV1 ovarian, in the assay with NCI-H522 lung, with OVCAR-8 ovarian and in the assay on EKVX NSCLC was greater than 100 µM each time. Besides, the TGI in the assay with HCC-2998 colon, in the assay with OVCAR-3 ovarian, with SK-MEL-5 melanoma, in the assay with A498 renal, in the assay with UACC-62 melanoma and in the assay on U251 CNS was greater than 100 µM in each case. The TGI in the assay on HL-60(TB) leukemia and in the assay with M14 melanoma was greater than 100 µM each time.
`CCCN(CCCC(NC(C)=O)C(=O)NCc1ccccc1)C(=O)N(C)N=O` (stereo not drawn): the TGI with SNB-75 CNS, in the assay with A549 NSCLC, in the assay on NCI-H23 lung, in the assay on IGROV1 ovarian, in the assay on NCI-H522 lung and with OVCAR-8 ovarian was greater than 100 µM each time. The TGI with EKVX NSCLC, with HCC-2998 colon, with OVCAR-3 ovarian, in the assay on SK-MEL-5 melanoma, in the assay on A498 renal and in the assay with UACC-62 melanoma was greater than 100 µM each time. The TGI in the assay with U251 CNS and with M14 melanoma was greater than 100 µM in each case.
For the compound `Cc1ccc(N=NC(=O)NNc2ccc(C)cc2Br)c(Br)c1`, the TGI in the assay on SNB-75 CNS was greater than 100 µM; in the assay with A549 NSCLC it was greater than 100 µM; with T-47D breast, greater than 100 µM; in the assay with NCI-H23 lung, greater than 100 µM; with IGROV1 ovarian, 63.8 µM; in the assay with PC-3 prostate, 72.5 µM. The TGI was 55.3 µM with NCI-H522 lung; 62 µM with OVCAR-8 ovarian; greater than 100 µM with MDA-MB-231 breast; 31.3 µM in the assay on HCC-2998 colon; 41.2 µM with OVCAR-3 ovarian; 33.9 µM in the assay with SK-MEL-5 melanoma. In addition, the TGI with A498 renal was determined as 52.3 µM; with UACC-62 melanoma, 36.1 µM; in the assay on U251 CNS, 34.9 µM; with HL-60(TB) leukemia it was 63 µM; in the assay with DU-145 prostate it was 74 µM; in the assay on M14 melanoma, 72 µM.
On to `CC1=CP(=O)(OC(C)C)C=C(C)C1=C(Cl)Cl` (stereo not drawn), for which the TGI is greater than 100 µM with SNB-75 CNS; 97.8 µM with A549 NSCLC; greater than 100 µM with NCI-H23 lung; greater than 100 µM in the assay on IGROV1 ovarian; 9.03 µM in the assay on NCI-H522 lung; greater than 100 µM with OVCAR-8 ovarian. The TGI with EKVX NSCLC, with HCC-2998 colon, with OVCAR-3 ovarian, in the assay on SK-MEL-5 melanoma, with UACC-62 melanoma and with U251 CNS was greater than 100 µM throughout. Moreover, the TGI with HL-60(TB) leukemia and in the assay with M14 melanoma was greater than 100 µM in each case.
As for `CC12CCC(=O)N1[C@@H](c1ccccc1)[C@@H](c1ccccc1)O2` (stereo partly drawn), the TGI in the assay on SNB-75 CNS, in the assay with A549 NSCLC, with IGROV1 ovarian, in the assay with NCI-H522 lung, with OVCAR-8 ovarian and in the assay on HCC-2998 colon was greater than 100 µM in each case. Also, the TGI with OVCAR-3 ovarian, in the assay on SK-MEL-5 melanoma, in the assay with A498 renal, in the assay on UACC-62 melanoma, in the assay on HL-60(TB) leukemia and in the assay on M14 melanoma was greater than 100 µM each time.
